{
  "source": "patent US10443044B2",
  "about": "“Generating cardiac progenitor cells from pluripotent stem cells using isoxazole or isoxazole like compounds” (IPS Heart, priority 2014, dated 2019)",
  "key": {"IPS cells [1]": {"test_system": "IPS cells", "experiment": "Affymetrix array-based gene expression profiling", "format": "cell-based, mouse", "experimental": "(§1) In order to direct SiPS towards cardiac lineage cells, they were treated with a small molecule (Isoxazole, 20 uM, Sigma-Aldrich or ISX-9, StemCell Technologies, Inc Vancouver, BC) for five days and analyzed for DNA methyltransferase (Dnmt) activity, cell proliferation, and cardiac gene expression.\n(§2) Approximately 60% treated iPS cells were positive for Nkx-2.5. Given that posttranscriptional regulation is crucial for gene expression and cell survival molecular phenotypic analysis was performed, Affymetrix array-based gene expression profiling further confirmed 2-3 folds downregulation of Dnmt1, Dnmt3b and Max gene associated protein which were associated with global DNA hypomethylation and myc dependent cell transformation (see Table 1). Additionally, there was a 2-3 fold concomitant upregulation in the CCL7, CXCR2, CXCR5, integral membrane protein 2A, and ephrin A3. (FIG. 6).\nAffymetrix array-based gene expression profiling further confirmed 2-3 folds downregulation of Dnmt1, Dnmt3b and Max gene associated protein which were associated with global DNA hypomethylation and myc dependent cell transformation. In addition, there was 2-3 folds concomitant upregulation of CCL7, CXCR2, CXCR5, integral membrane protein 2A, and EphrinA3."}, "Nkx-2.5": {"test_system": "Nkx-2.5", "experiment": "Cardiac gene expression, RT-PCR and immunostaining", "format": "cell-based, mouse", "experimental": "as §1\nTotal RNA from small molecule treated and non-treated SiPS cells was isolated using RNeasy mini kit (Qiagen, Maryland, USA) and Omniscript Reverse Transcription kit (Qiagen, Maryland, USA) was used for the respective cDNA synthesis per manufacturer's instructions. […] PCR conditions included initial denaturation at 95° C. for 4 minutes, 32 cycles of denaturation at 95° C. for 1 minute, annealing at 55° C. for 1 minute, extension at 72° C. for 1 minute and final extension at 72° C. for 7 minutes. The PCR products were separated on 1.5% agarose gel, stained with ethidium bromide and visualized and photographed on a UV transluminator (Bio-Rad, USA).\nFor immunocytochemistry, differentiated colonies of SiPS were immunostained with respective specific primary antibodies (anti-Oct3/4, anti-Sox2, anti-Nanog antibodies, all at 1:100 concentration; Cell Signaling, Danvers, USA). […] The primary antibody-antigen reaction was detected with fluorescently conjugated specific secondary antibodies. […] Fluorescence signals were observed and photographed using fluorescence microscopy (Olympus; Tokyo, Japan)."}, "IPS cells [2]": {"test_system": "IPS cells", "experiment": "Oxidant induced apoptosis, TUNEL assay", "format": "cell-based, mouse", "details": "pretreated IPS vs non-treated IPS, listed as small molecule", "experimental": "In FIG. 3A, apoptosis was determined by TUNEL assay. […] All values were expressed as mean±SEM, * p<0.05 vs. control.\nas §1"}, "IPS cells [3]": {"test_system": "IPS cells", "experiment": "miR microarray analysis", "format": "cell-based, mouse", "details": "treated vs non-treated IPS cells", "experimental": "FIGS. 7A-7E show miR-microarray analysis of small molecule, isoxazole like compounds treated IPS vs non-treated IPS cells. Microarray analysis showing miR expression profile in non-treated IPS cells was quite different from small molecule treated IPS cells.\nas §2"}, "Gαi": {"test_system": "Gαi", "experiment": "Western blot of Gα protein (GPCR signaling)", "format": "cell-based, mouse"}, "SiPS": {"test_system": "SiPS", "experiment": "Cell proliferation assay (MTS)", "format": "cell-based, mouse", "details": "treated vs non treated SiPS, p<0.01; listed as small molecule", "experimental": "as §1\nThe cell proliferation assay was performed with the use of the MTS [3-(4,5-dimethylthiazol-2-yl)-5-(3-carboxymethoxyphenyl)-2-(4-sulfophenyl)-2H-tetrazolium] assay according to the manufacturer's recommendations (Promega). The plates were read at 490 nm using an automated ELISA plate-reader for the quantity of formazan product which was directly proportional to the number of living cells in culture."}, "[4]": {"test_system": "DNA methyltransferase (DNMT)", "experiment": "DNA methyltransferase (DNMT) activity assay in small molecule treated SiPS", "format": "cell-based, mouse", "experimental": "as §1\nNuclear extracts were isolated using the NE-PER Nuclear and Cytoplasmic Extraction Kit (Thermo Scientific, IL USA). Total DNMT activity was determined using an EpiQuik DNA methyltransferase activity assay kit (Epigentek, Brooklyn, N.Y.) per manufacturer's protocol. Enzyme activity for samples and controls was measured on a microplate reader (Hidex Chameleon, Finland) at 450 nm and DNMT activity (OD/h/ml) was calculated according to the formula: (Sample OD−blank OD)/(sample volume)×1000."}, "[5]": {"test_system": "Human iPSC line (ACS-1021)", "experiment": "Generation of cardiac progenitor cells from human iPS cells and differentiation into three lineages", "format": "cell-based"}, "IPS cells [6]": {"test_system": "IPS cells", "experiment": "Cytochrome c translocation to cytoplasm after H2O2, immunostaining", "format": "cell-based, mouse", "details": "after exposure to H2O2 (100 μmol), vs non-treated IPS cells", "experimental": "Immunostaining of cytochrome c in non-treated and small molecule, isoxazole or isoxazole like compounds treated IPS cells after exposure to H2O2 ([…]), (merged images with DAPI), (original magnifications; 200×).\nas §1"}, "[7]": {"test_system": "Skeletal myoblasts (SMs) from Oct3/4-GFP+ transgenic mouse", "experiment": "Reprogramming of skeletal myoblasts to iPS cells", "format": "cell-based", "details": "500 μM in 0.5% DMSO, 5-days; two weeks later", "experimental": "Skeletal myoblasts (SMs) purified from young male Oct3/4-GFP^+ transgenic mouse were treated with DNA methyltransferase inhibitor 500 μM RG-108 in 0.5% DMSO in knock out DMEM for 5-days. […] Although the research described herein was conducted in a murine model, the use of the same markers and agents will provide similar if not identical results in human cells and tissue."}, "[8]": {"details": "Affymetrix array, treated vs non-treated iPS cells"}, "[9]": {"details": "IPs + Small Molecule, regulation down"}, "[10]": {"details": "IPs + Small Molecule, regulation up"}, "[11]": {"details": "basal differentiation conditions"}, "[12]": {"details": "hiPSC, 7 day small molecule treatment"}},
  "note": "“Also recorded” adds a separate entry of the source.",
  "data": [
    {"molecule": "O=C(NC1CC1)c1cc(-c2cccs2)on1", "note": "[ISX-9, N-cyclopropyl-5-thiophen-2-yl-1,2-oxazole-3-carboxamide]", "values": [
      {"measurement": "downregulation of Dnmt1, Dnmt3b and Max gene associated protein", "setting": "IPS cells [1]; [8]", "value": "2-3 folds"},
      {"measurement": "upregulation of CCL7, CXCL2, CXCL5, integral membrane protein 2A and ephrin A3", "setting": "IPS cells [1]; [8]", "value": "2-3 fold"},
      {"measurement": "Fold change Dnmt1, DNA methyltransferase", "setting": "IPS cells [1]; [9]", "value": "−1.612", "unit": "fold"},
      {"measurement": "Fold change Dnmt3b, DNA methyltransferase 3B", "setting": "IPS cells [1]; [9]", "value": "−1.282", "unit": "fold"},
      {"measurement": "Fold change Mga, MAX gene associated protein", "setting": "IPS cells [1]; [9]", "value": "−1.104", "unit": "fold"},
      {"measurement": "Fold change Ccl7, chemokine (C-C motif) ligand 7", "setting": "IPS cells [1]; [10]", "value": 3.316, "unit": "fold"},
      {"measurement": "Fold change Cox6b1, cytochrome c oxidase subunit VIb polypeptide 1", "setting": "IPS cells [1]; [10]", "value": 2.546, "unit": "fold"},
      {"measurement": "Fold change Cox16, COX16 cytochrome c oxidase assembly homolog", "setting": "IPS cells [1]; [10]", "value": 3.006, "unit": "fold"},
      {"measurement": "Fold change Cxcl2, chemokine (C-X-C motif) ligand 2", "setting": "IPS cells [1]; [10]", "value": 2.732, "unit": "fold"},
      {"measurement": "Fold change Cxcl5, chemokine (C-X-C motif) ligand 5", "setting": "IPS cells [1]; [10]", "value": 2.137, "unit": "fold"},
      {"measurement": "Fold change Efna3, ephrin A3", "setting": "IPS cells [1]; [10]", "value": 2.088, "unit": "fold"},
      {"measurement": "Fold change Itm2a, integral membrane protein 2A", "setting": "IPS cells [1]; [10]", "value": 2.255, "unit": "fold"},
      {"measurement": "Fold change Itm2b, integral membrane protein 2B", "setting": "IPS cells [1]; [10]", "value": 2.18, "unit": "fold"},
      {"measurement": "Fold change Uqcr10, ubiquinol-cytochrome c reductase complex III subunit X", "setting": "IPS cells [1]; [10]", "value": 2.298, "unit": "fold"},
      {"measurement": "treated iPS cells positive for Nkx-2.5", "setting": "Nkx-2.5; SiPS, 20 uM, five days", "value": "Approximately 60%"},
      {"measurement": "Nkx-2.5 expression, RT-PCR", "setting": "Nkx-2.5; treated vs non treated IPS, p<0.01", "value": "significant upregulation"},
      {"measurement": "apoptosis (TUNEL positive cells)", "setting": "IPS cells [2]", "value": "tolerant to apoptosis; also recorded: reduced the apoptosis; also recorded: Fewer TUNEL positive cells/microscopic field"},
      {"measurement": "cardiac specific miR-133, miR-762 expression", "setting": "IPS cells [3]", "value": "upregulation"},
      {"measurement": "pluripotency associated miR-290 cluster, miR-574-5p and let-7 family expression", "setting": "IPS cells [3]", "value": "down regulation"},
      {"measurement": "Gαi / Gα (pan) protein level", "setting": "Gαi; Western blot, treated vs untreated IPS cells", "value": "significant upregulation"},
      {"measurement": "proliferative activity / mitogenic response", "setting": "SiPS", "value": "increased proliferative activity; also recorded: increase in mitogenic response"},
      {"measurement": "DNMT activity", "setting": "[4]; SiPS, 20 uM, five days", "value": "completely abolished"},
      {"measurement": "reduction in global DNA methylation", "setting": "[4]; SiPS, 20 uM, five days, FIG. 2", "value": 95, "unit": "%"},
      {"measurement": "inhibition of DNA methyltransferase activity", "setting": "[4]; treated IPS cells vs nontreated IPS cells, FIG. 2", "value": 95, "unit": "%"},
      {"measurement": "expression of CPC markers including Nkx2.5 and GATA4, RT-PCR and immunostaining", "setting": "[5]; 20 μM, 7 days, RPMI/B27 minus insulin", "value": "observed"},
      {"measurement": "spontaneous beating (cardiomyocyte differentiation)", "setting": "[5]; 7 days treatment, then RPMI/B27 with insulin 7-10 days, end of 20 days", "value": "all the cells began spontaneous beating"},
      {"measurement": "percentage of CMs (TnT+) from Nkx2.5+ cells", "setting": "[5]; [11]", "value": "95.2±2.1", "unit": "%"},
      {"measurement": "percentage of ECs (CD31+) from Nkx2.5+ cells", "setting": "[5]; [11]", "value": "90.3±2.5", "unit": "%"},
      {"measurement": "percentage of SMCs (α-SMA+) from Nkx2.5+ cells", "setting": "[5]; [11]", "value": "92.3±1.8", "unit": "%"},
      {"measurement": "purity of Nkx2.5 positive cells by FACS", "setting": "[5]; [12]", "value": "96.5±2.5", "unit": "%"},
      {"measurement": "transcription factors (Nkx2.5, GATA4 and ISL-1), immunofluorescence staining", "setting": "[5]; [12]", "value": "highly expressed"},
      {"measurement": "α-SMA and calponin expression, immunostaining", "setting": "[5]; induced CPC in DMEM-F12 with TGFβ and PDGFBB, 10 days", "value": "observed"},
      {"measurement": "endothelial cell markers CD31 and VE-cadherin", "setting": "[5]; induced CPC in EGM-2 medium, 10 days", "value": "expressed"},
      {"measurement": "converting iPSC into cardiac progenitors including endothelial/vascular progenitors and smooth muscle cells", "setting": "[5]; overall conclusion", "value": "very effective"},
      {"measurement": "cytochrome c translocation to cytoplasm", "setting": "IPS cells [6]", "value": "significant decrease"}
    ]},
    {"molecule": "O=C(O)C(Cc1c[nH]c2ccccc12)N1C(=O)c2ccccc2C1=O", "note": "[RG-108, N-phthalyl-L-tryptopha]", "values": [
      {"measurement": "generation of iPS cell colonies", "setting": "[7]", "value": "GFP^+ colonies of SM derived iPS cells (SiPS)"}
    ]},
    {"molecule": "pertussis toxin", "values": [
      {"measurement": "effect on small molecule induced Gα (pan) upregulation", "setting": "Gαi; concomitant use with small molecule in IPS cells", "value": "blocked"}
    ]}
  ]
}
